Patent publication US20090209619A1, “Depression of herg k+ channel function in mammallan cells and applications to the control of cancer cells division” (priority 2004, published 2009)
Marks after values point to notes of the source that are not given here.

How the values were obtained:
MCF-7 cells = details: cited from earlier work
MCF-7 [1] = assay: Cancer cell proliferation by population doubling time (PDT), MCF-7; format: cell-based, human; details: blocker 1 μM; for population doubling time: 30 min in serum-free medium, cells counted 5 h and 48 h after seeding
Description: (§1) The human breast cancer cell lines MCF-7, BT132, and Sk-Br-3, human neuroblastoma cell line SHSY5Y, murine atrial tumor cell line HL-1 were used. These cell are known to express HERG channels. For chemical blocking of HERG conductance, tumor cells were incubated with dofetilide (1 μM), the anti-arrhythmic agent E4031 (1 μM) or cisapride (1 μM) for 30 min in serum-free medium. Control experiments wherein no dofetilide, no E-4031 and no cisapride was used were also performed.
(§2) Cell proliferation was assessed by characterizing the log phase growth with population doubling time (PDT) calculated by the equation: 1/(3.32*(log NH−log NI)/(t2−t1)), where NH is the number of cells harvested at the end of the growth period (at time t2) and NI is the number of cells at 5 hours (t1) after seed. Cells were counted by a flow cytometer (EPICS XL; Beckman Coulter Canada, Inc.), and the number obtained at 5 h (t1) after seeding was taken as an initial cell number (NI), and the number at 48 h (t2) after seeding was taken as an endpoint number (NH). The longer the PDT is, the slower the growth is.
(§3) In experiments involving interference RNA, in this case siRNA, the cells were transfected with siRNA using lipofectamine-2000 as a carrier to deliver the siRNA to the cells, according to the manufacturer's protocols. The sequence of our siRNA targeting HERG position 3498 bp is […] (SEQ ID NO:1). A negative control targeting the following sequence: […] (SEQ ID NO:2) has been used. The siRNA is designed as cassette using U6 as the promoter and its efficacy was validated by its ability to decrease HERG mRNA by around 78% determined by real-time RT-PCR. SiRNA targeting the following 2 target sequences: […] (SEQ ID 03) (starting at 255 bp) and […] (SEQ ID 04) (starting at 2609 bp) has also been tested. As an siRNA cassette is used, these sequences (SEQ ID 01-04) are also DNA sequences that are injected in the cells to produce in situ the siRNA that will interfere with expression of the HERG gene.

SHSY5Y = assay: Cancer cell proliferation by population doubling time (PDT), SHSY5Y; format: cell-based, human; details: blocker 1 μM; for population doubling time: 30 min in serum-free medium, cells counted 5 h and 48 h after seeding
Description: as §1, §2, §3

BT132 = assay: Cancer cell proliferation by population doubling time (PDT), BT132; format: cell-based, human; details: blocker 1 μM; for population doubling time: 30 min in serum-free medium, cells counted 5 h and 48 h after seeding
Description: as §1, §2, §3

MCF-7 [2] = assay: Tumor growth in nude mice inoculated subcutaneously with MCF-7; details: for tumor volume, Day 7 / tumor volume, Day 1: MCF-7 tumor in nude mice, 5 μg/tumor single intratumoral injection; for tumor volume, Day 7: 7 days after treatment; for tumor volume, Day 1: day of treatment; for % changes of tumor volume over control: MCF-7 tumor, 5 μg/tumor, day 7
Sk-Br-3 [3] = assay: Cancer cell proliferation by population doubling time (PDT), Sk-Br-3; format: cell-based, human; details: blocker 1 μM; for population doubling time: 30 min in serum-free medium, cells counted 5 h and 48 h after seeding
Description: as §1, §2, §3

SK-BR-3 [4] = assay: Tumor growth in nude mice inoculated subcutaneously with SK-BR-3; details: for tumor volume, Day 7 / tumor volume, Day 1: Sk-Br-3 tumor in nude mice, 5 μg/tumor single intratumoral injection; for tumor volume, Day 7: 7 days after treatment; for tumor volume, Day 1: day of treatment; for % changes of tumor volume over control: Sk-Br-3 tumor, 5 μg/tumor, day 7
HL-1 = assay: Cancer cell proliferation by population doubling time (PDT), HL-1; format: cell-based, murine; details: blocker 1 μM; for population doubling time: 30 min in serum-free medium, cells counted 5 h and 48 h after seeding
Description: as §1, §2, §3

EAG = molecular target: T1, EAG (Homo sapiens, UniProt O95259); details: extracellular perfusion; cited from earlier work
T1 sequence (O95259 1-989): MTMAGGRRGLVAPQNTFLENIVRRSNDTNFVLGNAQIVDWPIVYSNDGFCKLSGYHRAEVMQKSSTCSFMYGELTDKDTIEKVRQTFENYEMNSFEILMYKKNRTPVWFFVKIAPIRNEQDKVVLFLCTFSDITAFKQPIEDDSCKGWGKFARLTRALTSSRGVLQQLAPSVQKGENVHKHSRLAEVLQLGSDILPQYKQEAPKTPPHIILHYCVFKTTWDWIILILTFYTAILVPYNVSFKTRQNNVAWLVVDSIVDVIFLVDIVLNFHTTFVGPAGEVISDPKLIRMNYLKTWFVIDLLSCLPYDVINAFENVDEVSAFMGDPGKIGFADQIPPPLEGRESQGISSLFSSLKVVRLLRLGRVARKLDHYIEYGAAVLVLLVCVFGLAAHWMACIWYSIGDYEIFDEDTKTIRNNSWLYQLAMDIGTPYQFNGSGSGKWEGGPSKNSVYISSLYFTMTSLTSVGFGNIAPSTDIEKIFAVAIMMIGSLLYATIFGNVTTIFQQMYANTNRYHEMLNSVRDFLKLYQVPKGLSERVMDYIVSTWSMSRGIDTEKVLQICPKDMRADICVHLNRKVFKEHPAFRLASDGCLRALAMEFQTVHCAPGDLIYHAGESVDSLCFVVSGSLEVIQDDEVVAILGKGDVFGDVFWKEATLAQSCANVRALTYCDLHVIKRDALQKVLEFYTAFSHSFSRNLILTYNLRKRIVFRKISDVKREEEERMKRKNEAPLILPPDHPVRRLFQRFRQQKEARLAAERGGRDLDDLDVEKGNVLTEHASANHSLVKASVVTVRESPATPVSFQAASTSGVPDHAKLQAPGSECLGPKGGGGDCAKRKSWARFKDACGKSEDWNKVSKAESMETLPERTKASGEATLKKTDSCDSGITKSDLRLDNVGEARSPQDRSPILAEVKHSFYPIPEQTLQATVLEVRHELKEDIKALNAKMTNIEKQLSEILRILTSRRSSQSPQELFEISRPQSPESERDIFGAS

Compound | effect on growth/proliferation of MCF-7 human breast cancer cells (MCF-7 cells) | % changes of population doubling time over control (MCF-7 [1]) [%] | population doubling time (MCF-7 [1]) | % changes of population doubling time over control (SHSY5Y) [%] | population doubling time (SHSY5Y) | % changes of population doubling time over control (BT132) [%] | population doubling time (BT132) | tumor volume, Day 7 (MCF-7 [2]) | tumor volume, Day 1 (MCF-7 [2]) [cm^3] | % changes of tumor volume over control (MCF-7 [2]) [%] | % changes of population doubling time over control (Sk-Br-3 [3]) [%] | population doubling time (Sk-Br-3 [3]) | tumor volume, Day 7 (SK-BR-3 [4]) | tumor volume, Day 1 (SK-BR-3 [4]) [cm^3] | % changes of tumor volume over control (SK-BR-3 [4]) [%] | % changes of population doubling time over control (HL-1) [%] | population doubling time (HL-1) | inhibition of cell proliferation (MCF-7 cells; extracellular perfusion, cell line not given) [%] | inhibition of EAG current (EAG) [%]
CCCCc1oc2ccccc2c1C(=O)c1cc(I)c(OCCN(CC)CC)c(I)c1 [amiodarone] | inhibitory effects | – | – | – | – | – | – | – | – | – | – | – | – | – | – | – | – | – | –
Cc1cccc(CCN2CCC(C(=O)c3ccc(NS(C)(=O)=O)cc3)CC2)n1 [E-4031] | – | 43 | 64.9 ± 11.5* hours | 70 | 101.8 ± 11.5* hours | 48 | 80.5 ± 8.2* hours | 3.7 ± 0.8^+ cm^3 | 3.5 ± 0.6 | −30 | 98 | 165.3 ± 15.2* hours | 4.1 ± 0.6*^+ cm^3 | 2.1 ± 1.0 | −28 | 37 | 93.5 ± 10.0* hours | – | –
Cc1cc(N)c2ccccc2[n+]1CCCCCCCCCC[n+]1c(C)cc(N)c2ccccc21 [dequalinium] | inhibitory effects | – | – | – | – | – | – | – | – | – | – | – | – | – | – | – | – | – | –
COc1ccc(CCN2CCC(Nc3nc4ccccc4n3Cc3ccc(F)cc3)CC2)cc1 [astemizole] | – | – | – | – | – | – | – | – | – | – | – | – | – | – | – | – | – | ~23 | ~20
CN(CCOc1ccc(NS(C)(=O)=O)cc1)CCc1ccc(NS(C)(=O)=O)cc1 [Dofetilide, dofetilide] | – | 55 | 70.4 ± 6.2* hours | 59 | 95.2 ± 10.2* hours | 56 | 84.8 ± 7.5* hours | – | – | – | 128 | 184.0 ± 16.6* hours | – | – | – | 30 | 85.5 ± 9.2 h | – | –
COc1cc(N)c(Cl)cc1C(=O)NC1CCN(CCCOc2ccc(F)cc2)CC1OC (stereo not shown) [Cisapride, cisapride] | – | 58 | 71.7 ± 7.3* hours | 57 | 92.0 ± 8.3* hours | 62 | 88.1 ± 9.0* hours | 3.0 ± 0.4^+ cm^3 | 3.2 ± 0.5 | −42 | 114 | 174.3 ± 17.7* hours | 3.1 ± 0.3^+ cm^3 | 2.4 ± 1.3 | −45 | 47 | 100.3 ± 9.8* hours | – | –
